Measured values published in patent publication US20260115336A1, “MOFS WITH BETA-EMITTERS FOR RADIOTHERAPY” (Node Pharma AS, priority 2023, published 2026).

Key:
[1] = Lu177 radiolabelling (adsorption) of the MOF, iTLC; assay type: physicochemical; details: 60 kBq [177Lu]LuCl3, 0.005 mol/L MES buffer pH 6, 37° C., 24 hours
Protocol: (§1) Radiolabelling was performed by adding 60 kBq of [^177Lu]LuCl3 solution to a 400 μL suspension of UiO-66-(COOH)2 (0.6 mg) in 0.005 mol/L MES buffer (pH 6). A control sample consisting of 60 kBq [^177Lu]LuCl3 in 0.005 mol/L MES buffer was prepared in parallel. The samples were kept at 37° C., under agitation for 24 hours. 35 μL of each sample was dispersed in 400 μL of fetal bovine serum. After 30 minutes, both the radiolabelled-dose and the serum-dose suspensions were subjected to instant thin layer chromatography (iTLC) under the following conditions: 5 μL drops were placed on glass fiber iTLC strips, which were then placed in a TLC chamber with 20 mM sodium citrate (pH 6.5) as mobile phase. Upon completion, the application point and the top of the iTLC strip were measured separately using a Hidex gamma counter.

[2] = Retention of Lu177 in the MOF in serum, iTLC; assay type: in vitro ADME; details: fetal bovine serum, after 30 minutes
Protocol: as §1

Labelling, RCP (radiochemical purity) [1]: 1% | Serum retention (retention of Lu in serum) [2]: 3%
Compound: [Cl][Lu]([Cl])[Cl] [LuCl3, [^177Lu]LuCl3]
